Measured values reported in patent publication US8501744B2, “Piperazine compounds” (Amura Therapeutics, Limited, priority 2008, dated 2013).

Target: Human recombinant cathepsin K (Homo sapiens (Human), UniProt P43235)
Experiment: In vitro cathepsin Ki inhibition measurements
Type: biochemical
Settings: for Ki: human recombinant cathepsin K, pH 5.5, Z-Leu-Arg-AMC substrate, read-out: In vitro Ki (nM) vs Cath K; for fold improvement in in vitro potency against human cathepsin K: relative to closest prior art compound (42)
Experimental: Stock solutions of substrate or inhibitor were made up to 10 mM in 100% dimethylsulfoxide (DMSO) (Rathburns, Glasgow, U.K.) and diluted as appropriately required. In all cases the DMSO concentration in the assays was maintained at less than 1% (vol./vol.). The equilibrium inhibition constants (Ki^ss) for each compound were measured under steady-state conditions monitoring enzyme activity as a function of inhibitor concentration. The values were calculated on the assumption of pure competitive behaviour (Cornish-Bowden, A. Fundamentals of enzyme kinetics Portland Press; 1995, 93-128.). Human recombinant cathepsin K (0.25 nM final; B. Turk, Josef, Stefan Institute, Ljubljana, Slovenia), was routinely assayed in 100 mM sodium acetate; pH 5.5 containing 1 mM EDTA, 10 mM L-cysteine and 1.8 μM Z-Leu-Arg-AMC ([S]=KM).
The apparent inhibition constant (Ki) for each compound was determined on the basis that inhibition was reversible and occurred by a pure-competitive mechanism. The Ki values were calculated, from the dependence of enzyme activity as a function of inhibitor concentration, by direct regression analysis (Prism v 3.02) using Equation 2 (Cornish-Bowden, A., 1995.).
In situations where the apparent dissociation constant (Ki^app) approached the enzyme concentrations, the Ki^app values were calculated using a quadratic solution in the form described by Equation 3 (Morrison, J. F. Trends Biochem. Sci., 7, 102-105, 1982; Morrison, J. F. Biochim. Biophys. Acta. 185, 269-286, 1969; Stone, S. R. and Hofsteenge, J. Biochemistry, 25, 4622-4628, 1986).
Curves were fitted by non-linear regression analysis (Prism) using a fixed value for the enzyme concentration. Equation 4 was used to account for the substrate kinetics, where ‘Ki’ is the inhibition constant, ‘[So]’ is the initial substrate concentration and ‘KM^app’ is the apparent macroscopic binding (Michaelis) constant for the substrate (Morrison, 1982).

Human recombinant cathepsin K, sequence (P43235 115-329): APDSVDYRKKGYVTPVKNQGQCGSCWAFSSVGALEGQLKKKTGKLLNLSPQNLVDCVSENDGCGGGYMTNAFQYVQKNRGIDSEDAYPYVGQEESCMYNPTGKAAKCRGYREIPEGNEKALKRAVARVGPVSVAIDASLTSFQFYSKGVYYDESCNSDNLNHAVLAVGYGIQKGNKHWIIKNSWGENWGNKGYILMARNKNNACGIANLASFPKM

SMILES	Ki	fold improvement in in vitro potency against human cathepsin K
CC(C)C[C@H](NC(=O)c1ccc(N2CCN(C)CC2)cc1)C(=O)N1C[C@@H](C)[C@H]2OCC(=O)[C@H]21 [Example 1, N—((S)-4-methyl-1-((3aS,6R,6aR)-6-methyl-3-oxodihydro-2H-furo[3,2-b]pyrrol-4(5H,6H,6aH)-yl)-1-oxopentan-2-yl)-4-(4-methylpiperazin-1-yl)benzamide]	2.5 nM	3.5 fold
C[C@@H]1CN(C(=O)[C@@H](NC(=O)c2ccc(N3CCN(C)CC3)cc2)C2CCCC2)[C@@H]2C(=O)CO[C@H]12 [Example 4, N—((S)-1-cyclopentyl-2-((3aS,6R,6aR)-6-methyl-3-oxodihydro-2H-furo[3,2-b]pyrrol-4(5H,6H,6aH)-yl)-2-oxoethyl)-4-(4-methylpiperazin-1-yl)benzamide]	1 nM	8.7 fold
C[C@H]1CN(C(=O)[C@@H](NC(=O)c2ccc(N3CCN(C)CC3)cc2)C2CCCC2)[C@@H]2C(=O)CO[C@@H]21 [Example 7, N—((S)-1-cyclopentyl-2-((3aS,6S,6aR)-6-methyl-3-oxodihydro-2H-furo [3,2-b]pyrrol-4(5H,6H,6aH)-yl)-2-oxoethyl)-4-(4-methylpiperazin-1-yl)benzamide]	0.35 nM	24.9 fold
CC(C)C[C@H](NC(=O)c1ccc(N2CCN(C)CC2)cc1)C(=O)N1C[C@@H](C(F)F)[C@H]2OCC(=O)[C@H]21 [Example 8, N—((S)-1-((3aS,6R,6aR)-6-(difluoromethyl)-3-oxodihydro-2H-furo[3,2-b]pyrrol-4(5H,6H,6aH)-yl)-4-methyl-1-oxopentan-2-yl)-4-(4-methylpiperazin-1-yl)benzamide]	1.7 nM	5.7 fold
CC(C)C[C@H](NC(=O)c1ccc(N2CCN(C)CC2)cc1)C(=O)N1C[C@H](C(F)F)[C@H]2OCC(=O)[C@H]21 [Example 12, N—((S)-1-((3aS,6S,6aR)-6-(difluoromethyl)-3-oxodihydro-2H-furo[3,2-b]pyrrol-4(5H,6H,6aH)-yl)-4-methyl-1-oxopentan-2-yl)-4-(4-methylpiperazin-1-yl)benzamide]	0.8 nM	10.9 fold
CC(C)C[C@H](NC(=O)c1ccc(-c2csc(N3CCN(C)CC3)n2)cc1)C(=O)N1C[C@@H](C)[C@H]2OCC(=O)[C@H]21 [Example 16, N—((S)-4-methyl-1-((3aS,6R,6aR)-6-methyl-3-oxodihydro-2H-furo[3,2-b]pyrrol-4(5H,6H,6aH)-yl)-1-oxopentan-2-yl)-4-(2-(4-methylpiperazin-1-yl)thiazol-4-yl)benzamide]	0.7 nM	
CC(C)[C@@H]1CN(C(=O)[C@@H](NC(=O)c2ccc(N3CCN(C)CC3)cc2)C(C)(C)C)[C@@H]2C(=O)CO[C@@H]21 [Example 24, N—((S)-1-((3aS,6R,6aH)-6-isopropyl-3-oxodihydro-2H-furo[3,2-b]pyrrol-4(5H,6H,6aH)-yl)-3,3-dimethyl-1-oxobutan-2-yl)-4-(4-methylpiperazin-1-yl)benzamide]	3.2 nM	
CC[C@@H]1CN(C(=O)[C@@H](NC(=O)c2ccc(N3CCN(C)CC3)cc2)C2CCCC2)[C@@H]2C(=O)CO[C@H]12 [Example 27, N—((S)-1-cyclopentyl-2-((3aS,6R,6aR)-6-ethyl-3-oxodihydro-2H-furo[3,2-b]pyrrol-4(5H,6H,6aH)-yl)-2-oxoethyl)-4-(4-methylpiperazin-1-yl)benzamide]	1.2 nM	7.3 fold
CC(C)[C@H]1CN(C(=O)[C@@H](NC(=O)c2ccc(N3CCN(C)CC3)cc2)C2CCCC2)[C@@H]2C(=O)CO[C@H]12 [Example 30, N—((S)-1-cyclopentyl-2-((3aS,6S,6aR)-6-isopropyl-3-oxodihydro-2H-furo[3,2-b]pyrrol-4(5H,6H,6aH)-yl)-2-oxoethyl)-4-(4-methylpiperazin-1-yl)benzamide]	0.45 nM	18.9 fold

More lines, in order of falling Ki, values ahead:

Ki	fold improvement in in vitro potency against human cathepsin K	SMILES
4.4 nM		CC[C@@H]1CN(C(=O)[C@@H](NC(=O)c2ccc(N3CCN(C)CC3)cc2)C(C)(C)C)[C@@H]2C(=O)CO[C@H]12 [Example 23, N—((S)-1-((3aS,6R,6aR)-6-ethyl-3-oxodihydro-2H-furo[3,2-b]pyrrol-4(5H,6H,6aH)-yl)-3,3-dimethyl-1-oxobutan-2-yl)-4-(4-methylpiperazin-1-yl)benzamide]
1.5 nM	5.8 fold	CC(C)[C@@H]1CN(C(=O)[C@@H](NC(=O)c2ccc(N3CCN(C)CC3)cc2)C2CCCC2)[C@@H]2C(=O)CO[C@@H]21 [Example 28, N—((S)-1-cyclopentyl-2-((3aS,6R,6aR)-6-isopropyl-3-oxodihydro-2H-furo [3,2-b]pyrrol-4(5H,6H,6aH)-yl)-2-oxoethyl)-4-(4-methylpiperazin-1-yl)benzamide]
0.8 nM		CC[C@H]1CN(C(=O)[C@@H](NC(=O)c2ccc(N3CCN(C)CC3)cc2)C(C)(C)C)[C@@H]2C(=O)CO[C@H]12 [Example 25, N—((S)-1-((3aS,6S,6aR)-6-ethyl-3-oxodihydro-2H-furo[3,2-b]pyrrol-4(5H,6H,6aH)-yl)-3,3-dimethyl-1-oxobutan-2-yl)-4-(4-methylpiperazin-1-yl)benzamide]
0.8 nM		CC(C)[C@H]1CN(C(=O)[C@@H](NC(=O)c2ccc(N3CCN(C)CC3)cc2)C(C)(C)C)[C@@H]2C(=O)CO[C@H]12 [Example 26, N—((S)-1-((3aS,6S,6aR)-6-isopropyl-3-oxodihydro-2H-furo[3,2-b]pyrrol-4 (5H,6H,6aH)-yl)-3,3-dimethyl-1-oxobutan-2-yl)-4-(4-methylpiperazin-1-yl)benzamide]
0.75 nM	11.6 fold	CC(C)C[C@H](NC(=O)c1ccc(N2CCN(C)CC2)cc1)C(=O)N1C[C@H](C)[C@H]2OCC(=O)[C@H]21 [Example 5, N—((S)-4-methyl-1-((3aS,6S,6aR)-6-methyl-3-oxodihydro-2H-furo[3,2-b]pyrrol-4(5H,6H,6aH)-yl)-1-oxopentan-2-yl)-4-(4-methylpiperazin-1-yl)benzamide]
0.4 nM	22.9 fold	CC[C@H]1CN(C(=O)[C@@H](NC(=O)c2ccc(N3CCN(C)CC3)cc2)C2CCCC2)[C@@H]2C(=O)CO[C@H]12 [Example 29, N—((S)-1-cyclopentyl-2-((3aS,6S,6aR)-6-ethyl-3-oxodihydro-2H-furo[3,2-b]pyrrol-4(5H,6H,6aH)-yl)-2-oxoethyl)-4-(4-methylpiperazin-1-yl)benzamide]
